Data as given in patent US20230348373A1, “DEUTERATED DERIVATIVES OF 6,8-BIS(BENZYLSULFANYL)OCTANOIC ACID” (Rafael Pharmaceuticals, Inc., priority 2019, published 2023).
pIC50: −log10 of the molar value.

What was measured:
[1] = after IV dosing; Pardee et al. 2014; cited from earlier work
[2] = test system: Panc-1 pancreatic cancer cell line; test: Cell viability (Cell Titer-Glo) in Panc-1 cells; assay type: cell-based; settings: Homo sapiens, replete media, 48 h incubation, 24 h recovery; for pIC50: first value of IC50/IC90; for IC90: second value of IC50/IC90
Description: (§1) Biological activity was assessed in vitro in the following pancreatic cancer and colorectal cancer cell lines. • Pancreatic cancer cell lines • Panc-1: non-metastatic; mutations: KRAS, TP53 • AsPC-1: metastatic; mutations: KRAS, TP53, CDKN2A, MAP2K4 • Colorectal cancer cell lines • LoVo: metastatic; mutations: APC, KRAS, FBXW7, […] • SW620: metastatic; mutations: KRAS, TP53
(§2) Tumor cells were maintained at 37° C. in a humidified 5% CO2 atmosphere in T75 tissue culture flask containing 10 mL of RPMI 1640 (PANC-1), DMEM (AsPC-1), F12K (LoVo) or L15 (SW620), containing 2 mM L-glutamine, 10% fetal bovine serum (FBS) and 1% penicillin and streptomycin. The tumor cells were split at a ratio of 1:5 every 4-5 days by trypsinization and suspended in fresh medium in a new flask. Cells were harvested for experiments at 80-95% confluency.
(§3) PANC-1 cells in RPMI medium with 10% FBS (12,000 cells/well in 96 well plate) were incubated with increasing concentrations (12.5, 25, 50, 100, 150, and 200 µM), of test compound at 37° C. under 5% CO2 for 48 hours. Cells were undergone for another 24 hr recovery, in fresh RPMI media without serum. Cell viability was assessed using the Promega Cell Titer-Glo assay kit, following their protocol. Cell viability was measured based on the amount of ATP produced by the total number of cells present in each well using FLUOSTAR OPTIMA plate reader in the Luminescence mode. Production of ATP in Luminescence unit is directly proportional to the number of live cells. % live cells were calculated and SEM was also calculated as average of 3 replica wells.

[3] = test system: LoVo colorectal cancer cell line; test: Cell viability (Cell Titer-Glo) in LoVo cells; assay type: cell-based; settings: Homo sapiens, replete media, 48 h incubation, 24 h recovery; for pIC50: first value of IC50/IC90; for IC90: second value of IC50/IC90
Description: as §1, §2, §3
(§4) Test compounds were screened for activity in AsPC-1 cells and the colon cancer cells using similar procedures but replacing RPMI with the respective media indicated above for the initial 48 hour incubation (i.e., DMEM (AsPC-1), F12K ( LoVo ), or L15 (SW620)), and RPMI was always used for the 24 hour recovery. Cells seeded for AsPc-1 (25,000 cells/well), LoVo (25,000 cells/well) and SW620 (25,000 cells/well) to achieve ~ 50% confluency after 24 hrs of seeding.

[4] = test system: AsPC-1 pancreatic cancer cell line; test: Cell viability (Cell Titer-Glo) in AsPC-1 cells; assay type: cell-based; settings: Homo sapiens, ASPC1, replete media, 48 h incubation, 24 h recovery; for pIC50: first value of IC50/IC90
Description: as §1, §2, §3, §4

[5] = test system: SW620 colorectal cancer cell line; test: Cell viability (Cell Titer-Glo) in SW620 cells; assay type: cell-based; settings: Homo sapiens, SW-620, replete media, 48 h incubation, 24 h recovery; for pIC50: first value of IC50/IC90
Description: as §1, §2, §3, §4

| pIC50 [2] | pIC50 [3] | pIC50 [4] | pIC50 [5] | IC90 [2] | IC90 [3] | IC90 ([4]; second value of IC50/IC90) | IC90 ([5]; second value of IC50/IC90) | SMILES | half-life [1] |
| --- | --- | --- | --- | --- | --- | --- | --- | --- | --- |
| – | 4.59 | 4.55 | 4.55 | 73 µM | 39 µM | 65 µM | 37 µM | [2H]C(O)(CCC(CCSCc1ccccc1)SCc1ccccc1)CC(N)=O (centres unmarked) [Compound I-78] | – |
| 4.36 | 3.74 | – | – | 282 µM | 254 µM | – | – | [2H]C(O)(CCC(CCSCc1ccccc1)SCc1ccccc1)CC(=O)N1CCNCC1 (centres unmarked) [Compound I-79] | – |

Further lines, the compound ahead of its results:

| SMILES | pIC50 [2] | pIC50 [3] | pIC50 [4] | pIC50 [5] | IC90 [2] | IC90 [3] | IC90 ([4]; second value of IC50/IC90) | IC90 ([5]; second value of IC50/IC90) | half-life [1] |
| --- | --- | --- | --- | --- | --- | --- | --- | --- | --- |
| O=C(O)CCCCC(CCSCc1ccccc1)SCc1ccccc1 (centres unmarked) [CPI-613, 6,8-bis(benzylsulfanyl)octanoic acid] | – | – | – | – | – | – | – | – | 1 to 2 h |
| [2H]C([2H])(CCC(CCSCc1ccccc1)SCc1ccccc1)CC(=O)O (centres unmarked) [Compound I-10, 6,8-bis(benzylsulfanyl)-3,3-dideuterio-octanoic acid] | < 3.52 | < 3.52 | – | – | – | – | – | – | – |
| [2H]C([2H])(CC(=O)O)C([2H])([2H])CC(CCSCc1ccccc1)SCc1ccccc1 (centres unmarked) [Compound I-24, 6,8-bis(benzylsulfanyl)-3,3,4,4-tetradeuterio-octanoic acid] | < 3.52 | < 3.52 | – | – | – | – | – | – | – |
| [2H]C(O)(CCC(CCSCc1ccccc1)SCc1ccccc1)CC(=O)O (centres unmarked) [Compound I-77] | < 3.52 | < 3.52 | 3.50 | < 3.52 | – | – | – | – | – |
